Measured values taken from US11939303B2, “Sulfamate derivatives of 4-(1-phenyl-1H-[1,2,3]triazol-4-yl)-phenol, derivatives of 4-(1-phenyl-1H-[1,2,3]triazol-4-yl)-phenol, their medical use and the method of obtaining 4-(1-phenyl-1H-[1,2,3]triazol-4-yl)-phenyl sulfamate derivatives” (POLITECHNIKA GDANSKA, priority 2018, dated 2024).
pIC50: −log10 of the molar value.

biological target: T1, STS steroid sulfatase enzyme isolated from a human placenta (Homo sapiens, UniProt P08842); test: STS steroid sulfatase enzymatic assay with nitrophenyl sulfate (NPS); assay type: biochemical; conditions: NPS substrate, pH 7.25, 60 minutes, p-nitrophenol at 405 nm, read-out: IC50 (ability to inhibit steroid sulfatase activity)
T1 construct: human placenta was stripped from membranes and homogenized in ice-cold Tris-HCl buffer pH 7.4; from tissue; host or cells: human placenta
T1 sequence (P08842 22-583): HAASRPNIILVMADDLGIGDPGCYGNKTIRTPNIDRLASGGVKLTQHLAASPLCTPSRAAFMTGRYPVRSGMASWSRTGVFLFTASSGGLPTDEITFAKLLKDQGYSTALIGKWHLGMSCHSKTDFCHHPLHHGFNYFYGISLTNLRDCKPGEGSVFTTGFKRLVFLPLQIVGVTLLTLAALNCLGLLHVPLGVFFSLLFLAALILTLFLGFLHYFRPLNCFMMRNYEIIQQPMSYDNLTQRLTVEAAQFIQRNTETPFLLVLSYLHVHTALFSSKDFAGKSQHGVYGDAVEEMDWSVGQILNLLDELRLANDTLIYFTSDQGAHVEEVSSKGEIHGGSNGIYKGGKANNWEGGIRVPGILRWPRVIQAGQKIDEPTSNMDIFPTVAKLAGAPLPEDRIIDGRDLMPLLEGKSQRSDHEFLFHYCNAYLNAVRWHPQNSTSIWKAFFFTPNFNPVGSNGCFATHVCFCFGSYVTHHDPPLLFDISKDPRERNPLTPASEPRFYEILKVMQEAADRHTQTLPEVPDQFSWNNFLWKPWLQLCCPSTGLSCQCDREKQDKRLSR
Protocol: The medical and biological activity of the compounds defined the general formula 1, for use as active compounds—medicament—drugs and/or as STS steroid sulfatase inhibitors, diagnostic agent and biological use were evaluated using the STS steroid sulfatase enzyme isolated from a human placenta according to the following procedure: • human placenta was stripped from membranes and homogenized in ice-cold Tris-HCl buffer pH 7.4 containing 0.1% Triton X-100 and 0.02% NaN3. • the homogenate was alternately frozen and thawed a few times and then centrifuged at 100000 g for 60 min, • the supernatant was removed and the same procedure from homogenization to centrifugation was carried out 5 times, • finally, the enzyme was purified by three-step chromatography using columns: DEAE-cellulose, Con A-Sepharose and Bio-Gel A-1.5 and appropriate buffers. All steps were carried out at 4° C. The biological, diagnostics and medical activity of STS inhibitors, for the compounds defined by the general formula 1, were evaluated by analyzing the progress of the enzymatic reaction using nitrophenyl sulfate (NPS). The final volume of the reaction mixture was 120 μL (pH=7.25) and contained 0.8 μmol NPS, 40 μmol Tris HCl and the appropriate amount of enzyme. After 60 minutes of reaction time, 0.5 mL of 1M NaOH was added to the reaction mixture. Released p nitrophenol was determined using a spectrophotometer at 405 nm. In the final step, the IC50 parameter values (characterizing the ability of obtained compounds to inhibit steroid sulfatase activity) were determined. […] Therefore, the compounds of the general formula 1 have biological, medical and diagnostic activity, and have medical applications for use as a medicament a well as in diagnostics for use as a diagnostic agent. It has been confirmed that the new compounds with general formula 1, as one of the possible mechanisms of medical and biological action, show a strong STS inhibitory activity at low micromolar or nanomolar concentrations, which is sufficient for the compounds to act as drugs classified as steroid sulfatase inhibitors or as compounds for use as steroid sulfatase inhibitors in diagnostic tests, in vitro clinical trials and its use in biological sciences. In particular, the compounds of the general formula 1 are for use as medicaments—useful as drugs in cancer therapy and in particular in the therapy of hormone-dependent cancers of animals, in particular mammals, including humans.

Row | pIC50 | Compound
1 | 6.09 | NS(=O)(=O)Oc1ccc(-c2cn(-c3cc(C(F)(F)F)cc(C(F)(F)F)c3)nn2)cc1 [4-[1-(3,5-Bis-trifluoromethyl-phenyl)-1H-[1,2,3]triazol-4-yl]-phenyl sulfamate]
2 | 6.74 | NS(=O)(=O)Oc1ccc(-c2cn(-c3cccc(C(F)(F)F)c3)nn2)cc1 [4-[1-(3-trifluoromethyl-phenyl)-1H-[1,2,3]-triazol-4-yl]-phenyl sulfamate]
3 | 7.44 | NS(=O)(=O)Oc1ccc(-c2cn(-c3cc(F)cc(F)c3)nn2)cc1 [4-[1-(3,5-difluoro-phenyl)-1H-[1,2,3]-triazol-4-yl]-phenyl sulfamate]
4 | 6.62 | NS(=O)(=O)Oc1ccc(-c2cn(-c3ccc(OC(F)(F)F)cc3)nn2)cc1 [4-[1-(4-trifluoromethoxy-phenyl)-1H-[1,2,3]-triazol-4-yl]-phenyl sulfamate]
